Values joined by “and” are separate entries in the source; they are usually repeats but may differ in a detail not shown here. Identical values can stand only once. “Also recorded” adds a separate entry of the source.
What was measured:
[1] = target: T1, TrkB (Rattus norvegicus, UniProt Q63604); experiment: TrkB phosphorylation in primary rat cortical neurons (immunoblotting); assay type: cell-based; details: for TrkB activation (phosphorylation) compared to vehicle control: 500 nM compound, 20 min, primary rat cortical neurons, immunoblotting; for minimal concentration triggering TrkB activation (titration assay): primary cortical neurons, different doses
T1 construct: endogenous in cells; host or cells: primary rat cortical neurons (E17 embryos, 13 DIV)
T1 sequence (Q63604 32-821): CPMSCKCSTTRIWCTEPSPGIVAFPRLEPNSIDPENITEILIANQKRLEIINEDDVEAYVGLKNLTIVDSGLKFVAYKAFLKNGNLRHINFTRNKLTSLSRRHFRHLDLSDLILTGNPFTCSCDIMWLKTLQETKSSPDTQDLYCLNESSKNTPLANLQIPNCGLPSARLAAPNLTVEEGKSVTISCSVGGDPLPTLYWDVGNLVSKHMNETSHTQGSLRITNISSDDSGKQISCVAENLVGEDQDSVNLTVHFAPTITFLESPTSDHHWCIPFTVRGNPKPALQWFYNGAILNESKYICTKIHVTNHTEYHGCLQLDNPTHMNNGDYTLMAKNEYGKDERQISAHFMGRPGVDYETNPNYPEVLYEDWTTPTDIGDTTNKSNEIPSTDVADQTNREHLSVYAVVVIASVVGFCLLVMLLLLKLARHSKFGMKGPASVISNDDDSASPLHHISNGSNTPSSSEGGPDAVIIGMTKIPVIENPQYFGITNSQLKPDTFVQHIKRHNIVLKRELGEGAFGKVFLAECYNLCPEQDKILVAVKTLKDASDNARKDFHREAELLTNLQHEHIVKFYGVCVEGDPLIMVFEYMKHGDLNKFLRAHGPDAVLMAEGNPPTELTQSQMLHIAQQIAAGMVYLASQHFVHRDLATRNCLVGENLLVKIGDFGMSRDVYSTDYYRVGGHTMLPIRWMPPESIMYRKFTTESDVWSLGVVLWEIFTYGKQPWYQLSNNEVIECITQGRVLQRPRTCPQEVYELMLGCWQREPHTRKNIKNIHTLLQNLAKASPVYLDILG
Protocol: Primary rat cortical neurons from E17 embryos (13 DIV) were treated with 500 nM various chemicals for 15 min. The neuronal cell lysates were collected and resolved on 10% SDS-PAGE. Immunoblotting was conducted with various antibodies. p-TrkB Y817 antibody was employed at 1:20000-40000 dilution.
Primary rat cortical neurons from E17 embryos (13 days in vitro (DIV)) were treated with 500 nM various chemicals for 15 min. The neuronal cell lysates were collected and resolved on 10% SDS-PAGE. Immunoblotting was conducted with various antibodies. p-TrkB Y817 antibody was employed at 1:20,000-40,000 dilution (top panel). Equal amount of TrkB was loaded in all of the samples (middle panel). P-Akt 473 ELISA analysis with the neuronal lysates (bottom panel).
7,8-dihydroxyflavone (7,8-DHF) is a small molecular TrkB agonist. Preliminary structure-activity relationship study (SAR) supports that 7,8-catechol moiety is essential for the agonistic effect by 7,8-DHF. To explore the structure-activity relationship (SAR) in depth, the TrkB stimulatory activity was examined by numerous flavonoid derivatives. The numeric positions and each ring's nomenclature are designated (FIG. 1A). Compounds were dissolved in DMSO, then diluted into […] with 1× PBS (final vehicle contains 10% DMSO/PBS) (FIG. 1B). Primary rat cortical neurons were treated with 500 nM compounds for 20 min. The cell lysates were analyzed by immunoblotting. […] Downstream activation of the TrkB target Akt was tightly correlated with TrkB activation patterns by these derivatives (FIG. 1C, bottom panel). As observed, the hydroxy groups on B ring can regulate 7,8-DHF's stimulatory activity on TrkB receptor. As 2′-hydroxy, especially 3′-hydroxy group, elevates the agonistic effect, whereas 4′-hydroxy group diminishes its stimulatory effect.
(§1) To compare the TrkB activation by these synthetic compounds, primary cortical cultures were prepared. Cortical neurons were treated with 500 nM of various compounds for 20 min and cell lysates were collected. […] Replacing the H-bond acceptor O atom with hydrogen bond donor NH abolishes its stimulatory effect. […] On the other hand, 7,8-DHF provoked TrkB activation with the minimal concentration of 100 nM (FIG. 2B, right panels). To further study 4′-DMA-7,8-DHF's kinetics on TrkB activation, primary neurons were treated for various time points. 4′-DMA-7,8-DHF swiftly activated TrkB as soon as 5 minutes following treatment. […] To compare the stimulatory effect on TrkB receptor in mouse brains, 1 mg/kg of the synthesized derivatives were injected into C57BL/6J mice. TrkB activation was monitored at different time points.
Additional compounds are listed as designated from a to m (FIG. 6A). The compounds were dissolved in DMSO, then diluted into 500 μM with 1× PBS (final vehicle contains 10% DMSO/PBS). The primary rat cortical neurons (13 DIV) were treated with 500 nM compounds for 20 min. The cell lysates were analyzed by immunoblotting. […] Moreover, p-Akt ELISA was monitored to quantitatively analyze the agonistic activities of these compounds.

[2] = target: T2, TrkB (Mus musculus, UniProt P15209); experiment: TrkB activation in mouse brain after single oral administration (immunoblotting); assay type: in vivo; details: 1 mg/kg oral, C57BL/6J mice
T2 construct: from tissue; host or cells: brain of wild-type C57BL/6J mice
T2 sequence (P15209 32-821): as the sequence (Q63604 32-821) above, with M3T, T9S, T10A, I32V, K63R, G84S, T153M, I185L, T394S, N770S counted along it
Protocol: Rat primary neurons were treated with 500 nM. 4′-DMA-7,8-DHF from various time points. The neuronal lysates were analyzed with various antibodies. 4′-DMA-7,8-DHF rapidly activated TrkB and its downstream signaling cascades (left panels). […] One mg/kg of 4′-DMA-7,8-DHF and 7,8-DHF were orally administrated into C57 BL/6J mice and TrkB phosphorylation and its downstream signaling cascades including Akt and MAPK in mouse brain were analyzed by immunoblotting at various time points. TrkB activation by 4′-DMA-7,8-DHF peaked at 4 h, whereas the maximal TrkB activation by 7,8-DHF in mouse brain occurred at 1-2 h (middle panels).
1 mg/kg of various compounds were orally administrated into C57 BL/6J mice and TrkB phosphorylation and its downstream signaling cascades including Akt and MAPK in mouse brain were analyzed by immunoblotting at 2 h.
Time course assay with compound i and m in mouse brain. 1 mg/kg of compound i and m were orally administrated into C57 BL/6J mice and TrkB phosphorylation and its downstream signaling cascades including Akt and MAPK in mouse brain were analyzed by immunoblotting at various time points.
as §1
The compounds were orally injected (1 mg/kg) into C57BL/6J mice. The TrkB and its downstream signaling cascades activation at 2 h were examined after drug administration with mouse brain tissues. […] The downstream p-Akt and p-MAPK tightly coupled to p-TrkB signals.

[3] = Forced swim test in C57BL/6J mice; assay type: in vivo, mouse; details: 5 mg/kg oral for 21 days, male C57BL/6J mice, immobility in last 4 min of 6 min
Protocol: Male C57BL/6J mice (8 mice/group) were orally administrated by gavage with 5 mg/kg 4′-DMA-7,8-DHF and 7,8-DHF and vehicle solvent saline for 21 days and subjected to a forced swim test (6 min, immobility recorded in the last 4 min). Data are presented as mean±SEM.
Forced swim test with imidazole flavonoid and compound i. Male C57BL/6J mice (8 mice/group) were orally administrated by gavage with 5 mg/kg 4′-DMA-7,8-DHF and 7,8-DHF and vehicle solvent saline for 21 days, and subjected to a forced swim test (6 min, immobility recorded in the last 4 min). Data are presented as mean±SEM.
Adult male mice (2-3 months old) were randomly submitted to a forced swim test without a pre-swim. Saline, 4′-DMA-7,8-DHF and 7,8-DHF (5 mg/kg) were orally injected for 21 days. The mice were allowed to adapt to the test room for 2 days. The mice were placed in a clear glass cylinder with a diameter of 16 cm, half-filled with clear water at 24° C.
Accumulating evidence supports that BDNF plays a role in mediating therapeutic effects of antidepressants. Infusion of exogenous BDNF into hippocampus or brain stem has anti-depressant-like behavioral effect. A forced swim test is broadly used for screening of potential antidepressant drugs and is widely used to measure antidepressant activity. To explore whether 4′-DMA-7,8-DHF and 7,8-DHF have any antidepressant effect like BDNF, a forced swim test was conducted after chronic treatment of the mice for 21 days via oral injection.
BDNF/TrkB signaling plays an role in mediating antidepressants' therapeutic effects. A forced swim test is broadly used for screening of potential antidepressant drugs and is widely used to measure antidepressant activity. To explore whether imidazole flavanoid and compound i have any antidepressant effect like BDNF, a forced swim test was conducted after chronic treatment of the mice for 21 days via oral administration.

[4] = primary neurons, 500 nM, time course

| Compound | TrkB activation (phosphorylation) compared to vehicle control [1] | minimal concentration triggering TrkB activation (titration assay) [1] [nM] | time of onset of TrkB activation in mouse brain [2] | TrkB activity in mouse brain at 16 h [2] | swimming immobility in forced swim test [3] | TrkB phosphorylation in mouse brain at 2 h [2] | TrkB activation in mouse brain, time course, compared with compound i ([2]; various time points) | swimming immobility in forced swim test ([3]; listed as imidazole flavanoid) | swimming immobility in forced swim test ([3]; listed as imidazole-derivative) | TrkB activation (phosphorylation) compared to vehicle control ([1]; listed as compound a) | agonistic effect on TrkB relative to parental 7,8-DHF ([1]; from titration assays) | time at which TrkB signal decayed back to baseline [1, 4] [min] | time to TrkB activation following treatment [1, 4] [min] | duration of TrkB agonistic effect in animals compared with 7,8-DHF [2] | time of peak TrkB activation in mouse brain [2] |
| --- | --- | --- | --- | --- | --- | --- | --- | --- | --- | --- | --- | --- | --- | --- | --- |
| O=c1cc(-c2ccccc2)oc2c(O)c(O)ccc12 [7,8-DHF, 7,8-dihydroxyflavone, reference compound] | stimulated TrkB activation | 100 | approximately 2 h | Elevated TrkB activity was demonstrable even at 16 h | significantly decreased |  |  |  |  |  |  |  |  |  |  |
| CN(C)c1ccc(-c2cc(=O)c3ccc4nc[nH]c4c3o2)cc1 [compound m, 8-(4-(dimethylamino)phenyl)chromeno[7,8-d]imidazol-6(1H)-one] | exhibited strong p-TrkB activity |  |  |  |  | exhibited the strongest TrkB phosphorylation | more robust and sustained TrkB activation than compound i | significantly decreased | more robust antidepressant effect than compound i |  |  |  |  |  |  |
| CN(C)c1ccc(-c2cc(=O)c3ccc(O)c(O)c3o2)cc1 [4′-DMA-7,8-DHF, 4′-dimethylamino-7,8-dihydroxyflavone] | strongly activated TrkB | 10 | 1 h | partially decayed at 16 h | evidently reduced the immobility | exhibited the strongest TrkB phosphorylation |  |  |  | activated TrkB better than compounds b to d | about 10 fold | 30 to 180 | 5 | sustained longer in animals; also recorded: longer period of TrkB activation in mouse brain | 8 h and 4 h |

— patent US9504674B2, “TrkB agonists and methods of use” (EMORY UNIVERSITY, priority 2010, dated 2016)
